A word on the IC50: it is the concentration that inhibits the measured activity by half. Read a low IC50 as greater potency in that assay. A word on the CC50: it is the concentration at which the toxic effect on the cells reaches its halfway point.

Structures are written as SMILES.

This is an account of results in patent US20200339544A1 (JOINT STOCK COMPANY "BIOCAD", priority 2017, published 2020).

Data set [1] can be described thus: Chemical stability in simulated gastric fluid (SGF). The class given is physicochemical. To be noted: SGF without enzymes, pH 1,4; 10 μm; 2 hours at 37° C.; substance amount remaining. Here is the method: (§1) 1) Determination of chemical stability in simulated intestinal fluid, simulated gastric fluid and human blood plasma.
(§2) SGF concentrate without enzymes, pH=1,4 (Sigma Ireland, cat #01651) was used as simulated gastric fluid. Initial candidate solution (10 mM in DMSO) was diluted with a SGF working solution to a concentration of 10 μm (test solution). The test solution was incubated in a dry block thermostat for 2 hours at 37° C. SIF concentrate without enzymes, pH=6.5 (Sigma Ireland, cat #55331) was used as simulated intestinal fluid. Initial candidate solution (10 mM in DMSO) was diluted with a SIF working solution to a concentration of 10 μm (test solution). The test solution was incubated in a dry block thermostat for 2 hours at 37° C. HPLC with Agilent 1200 liquid chromatography system (Agilent, USA) was employed to determine peak areas of the compounds in test samples, said peak areas corresponding to the initial test time (prior to incubation) and the final test time (after incubation in a dry block thermostat for 2 hours at 37° C.). We used gradient elution (1 mL/min flow rate). Substance amount in % in a sample after thermostatting was determined.
(§3) The stability of the compounds was estimated.

A short description of data set [2]: Chemical stability in simulated intestinal fluid (SIF). In kind it is physicochemical. The note with it: SIF without enzymes, pH 6.5; 10 μm; 2 hours at 37° C.; substance amount remaining. Here is the method: as §1, §2, §3
Another data set has as its target T1, WT EGFR (Wild-Type EGFR) (Homo sapiens, UniProt P00533).
T1 construct: purchased SignalChem
The data set can be described thus: Inhibition of WT EGFR kinase activity (ADP-Glo). In kind it is biochemical. The method, boiled down:
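Luminescent ADP-Glo readout was used for both wild-type and L858R/T790M EGFR, each run 180 minutes at 37° C. Reactions used a solution of 50 μM ATP with 0.5 mg/mL peptide substrate. Four-parameter logistic curves gave IC50.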
Background: ADP-Glo turns the ADP formed in a reaction into a luminescent signal.

The test system of data set [3] is A549 (lung adenocarcinoma, WT). The data set can be described thus: Antiproliferative activity on A549 cells (Alamar Blue). The class given is cell-based. To be noted: Homo sapiens, antiproliferative test. In a few lines: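 Viability read by Alamar Blue fluorescence (λEx 540, λEm 590 nm) 3-5 h after dye addition, following 72 h compound treatment at 37° C in 2% FBS RPMI-1640, ≤1% DMSO. Seeding 5*10^3 cells/well, 16-18 h attachment. Four-parameter logistic model gave IC50.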
For orientation: Resazurin is reduced to fluorescent resorufin, in cell work by metabolically active cells.

Data set [4] is described as follows: General cytotoxicity on HepG2 cells. In kind it is cell-based. To be noted: human; general cytotoxicity, HepG2 cells, 72 hours, average of several tests. The method, boiled down: (§4)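 HepG2 cells seeded at 2*10^4 cells per well and compounds added in DMEM with 2% FBS for 72 h at 37 °C. Viability read with Alamar Blue and CC50 derived as for IC50. Therapeutic index taken as HepG2 CC50 over H1975 IC50.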

In a further data set the test system is HepG2 cells. In words: General cytotoxicity on HepG2 cells. The class given is cell-based. To be noted: therapeutic index, CC50 HepG2 / IC50 H1975. The method, boiled down:
as §4

T1 sequence (P00533 25-1210): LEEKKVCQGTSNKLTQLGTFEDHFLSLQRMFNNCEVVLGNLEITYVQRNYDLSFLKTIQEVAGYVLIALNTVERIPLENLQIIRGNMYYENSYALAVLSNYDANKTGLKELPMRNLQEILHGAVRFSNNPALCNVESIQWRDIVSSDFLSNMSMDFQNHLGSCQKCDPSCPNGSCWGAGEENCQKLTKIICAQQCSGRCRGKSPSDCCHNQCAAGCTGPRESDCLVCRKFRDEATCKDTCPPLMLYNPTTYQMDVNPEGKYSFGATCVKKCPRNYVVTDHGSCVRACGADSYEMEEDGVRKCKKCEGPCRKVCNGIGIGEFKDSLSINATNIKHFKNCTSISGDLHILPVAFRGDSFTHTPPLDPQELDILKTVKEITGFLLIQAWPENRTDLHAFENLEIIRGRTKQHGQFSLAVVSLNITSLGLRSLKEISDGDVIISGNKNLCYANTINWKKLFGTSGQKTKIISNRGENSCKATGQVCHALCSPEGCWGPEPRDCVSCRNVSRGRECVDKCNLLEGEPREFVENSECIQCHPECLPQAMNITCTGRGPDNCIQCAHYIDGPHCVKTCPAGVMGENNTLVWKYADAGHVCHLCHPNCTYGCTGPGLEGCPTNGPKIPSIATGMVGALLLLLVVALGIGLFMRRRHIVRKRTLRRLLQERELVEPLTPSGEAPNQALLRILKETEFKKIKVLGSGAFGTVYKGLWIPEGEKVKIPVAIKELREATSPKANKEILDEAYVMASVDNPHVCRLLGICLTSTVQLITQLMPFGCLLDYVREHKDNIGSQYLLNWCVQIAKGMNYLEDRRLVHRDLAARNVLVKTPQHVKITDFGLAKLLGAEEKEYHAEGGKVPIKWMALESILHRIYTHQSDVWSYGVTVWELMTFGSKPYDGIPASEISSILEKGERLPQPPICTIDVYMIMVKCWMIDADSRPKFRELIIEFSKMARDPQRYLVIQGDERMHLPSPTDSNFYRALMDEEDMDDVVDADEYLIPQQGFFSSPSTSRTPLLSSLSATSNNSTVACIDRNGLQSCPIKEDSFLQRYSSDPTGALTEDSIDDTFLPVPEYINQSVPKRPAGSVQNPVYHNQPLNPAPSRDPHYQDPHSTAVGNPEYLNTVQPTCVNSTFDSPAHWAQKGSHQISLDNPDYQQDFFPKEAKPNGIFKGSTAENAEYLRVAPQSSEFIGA

As for `C=CC(=O)Nc1cc(Nc2cc(C(=O)c3ccc(N4CC(OC)C4)cc3)ccn2)c(OC)cc1N(C)CCN(C)C` (racemic) [EGFR_3365_53, N-(2-((2-(dimethylamino)ethyl)(methyl)amino)-4-methoxy-5-((4-(4-(3-methoxyazetidin-1-yl)benzoyl)pyridin-2-yl)amino)phenyl)acrylamide], the “Stability in SGF, %” value in data set [1] was 100.0%. For the same molecule, in data set [2], the “Stability in SIF, %” value is on record as 98.8%. Also, the IC50 stood at 0.183 µM on WT EGFR (Wild-Type EGFR) and 8.23 µM in data set [3]. This molecule registered a CC50 at 72 h in data set [4] of 20.6 µM. Moreover, the “TI, CC50/IC50” value in the data set with HepG2 cells is listed as 457.

Regarding `C=CC(=O)Nc1cc(Nc2nccc(C(=O)c3ccccc3C(F)(F)F)n2)c(OC)cc1N(C)CCN(C)C` [EGFR_3365, N-(2-((2-(dimethylamino)ethyl) (methyl)amino)-4-methoxy-5-((4-(2-(trifluoromethyl)benzoyl)pyrimidin-2-yl)amino)phenyl)acrylamide], in data set [1], the “Stability in SGF, %” value is given as 100.0%. Moreover, in data set [2], the “Stability in SIF, %” value is given as 100.0%. Further, the IC50 against WT EGFR (Wild-Type EGFR) is 0.587 µM; in data set [3], above 10 µM. The molecule also showed a CC50 at 72 h in data set [4] of 25.4 µM. In addition, the “TI, CC50/IC50” value with HepG2 cells turned out to be 423.

Take `C=CC(=O)Nc1cc(Nc2cc(C(=O)c3ccccc3)ccn2)c(OC)cc1N(C)CCN(C)C` [EGFR_3365_3, N-(5-((4-benzoylpyridin-2-yl)amino)-2-((2-(dimethylamino)ethyl)(methyl)amino)-4-methoxyphenyl)acrylamide]: the “Stability in SGF, %” value in data set [1] is recorded as 100.0%. For the same molecule, in data set [2], the “Stability in SIF, %” value was 100.0%. For the same molecule, the figures for the IC50 (against WT EGFR (Wild-Type EGFR); in data set [3]) were 0.0766 µM and 6.07 µM, respectively. The molecule also came in with a cytotoxic concentration (CC50) at 72 h in data set [4] of 15.2 µM. Moreover, in the data set on HepG2 cells, the “TI, CC50/IC50” value is on record as 341.

For `C=CC(=O)Nc1cc(Nc2cc(C(=O)c3ccc(N(C)C)cc3)ccn2)c(OC)cc1N(C)CCN(C)C.O=C(O)C(F)(F)F` [EGFR_3365_4, N-(5-((4-(4-(dimethylamino)benzoyl)pyridin-2-yl)amino)-2-((2-(dimethylamino)ethyl) (methyl)amino)-4-methoxyphenyl)acrylamide 2,2,2-trifluoroacetate], the “Stability in SGF, %” value in data set [1] is given as 100.0%. Moreover, in data set [2], the “Stability in SIF, %” value is recorded as 100.0%. In addition, the IC50 was determined as 0.23 µM against WT EGFR (Wild-Type EGFR) and 5.38 µM in data set [3]. The CC50 at 72 h in data set [4] worked out at 14.8 µM. Further, the “TI, CC50/IC50” value with HepG2 cells is given as 419.

For the molecule `C=CC(=O)Nc1cc(Nc2nccc(C(=O)c3ccc(F)cc3)n2)c(OC)cc1N(C)CCN(C)C` [EGFR_3365_10, N-(2-((2-(dimethylamino)ethyl)(methyl)amino)-5-((4-(4-fluorobenzoyl)pyrimidin-2-yl)amino)-4-methoxyphenyl) acrylamide], in data set [1], the “Stability in SGF, %” value is 100.0%. Besides, the “Stability in SIF, %” value in data set [2] is 100.0%. The IC50 worked out at 0.211 µM at WT EGFR (Wild-Type EGFR) and 13.2 µM in data set [3]. Further, it took 30.4 µM to reach half-maximal cytotoxicity in data set [4] (CC50 at 72 h). For the same molecule, the “TI, CC50/IC50” value in the data set on HepG2 cells was determined as 144.

As to `C=CC(=O)Nc1cc(Nc2nccc(C(=O)c3ccccc3Br)n2)c(OC)cc1N(C)CCN(C)C` [EGFR_3365_12, N-(5-((4-(2-bromobenzoyl)pyrimidin-2-yl)amino)-2-((2-(dimethylamino)ethyl) (methyl)amino)-4-methoxyphenyl)acrylamide], the “Stability in SGF, %” value in data set [1] is given as 100.0%. Also, in data set [2], the “Stability in SIF, %” value is recorded as 100.0%. The results for the IC50 (at WT EGFR (Wild-Type EGFR); in data set [3]) were 0.389 µM and 15.4 µM, respectively. The molecule further came in with a half-maximal cytotoxic concentration (CC50) at 72 h in data set [4] of 22.6 µM. The “TI, CC50/IC50” value in the data set on HepG2 cells was found to be 1051.

As to `C=CC(=O)Nc1cc(Nc2nccc(C(=O)c3ccc(OCc4ccccc4)cc3)n2)c(OC)cc1N(C)CCN(C)C` [EGFR_3365_16, N-(5-((4-(4-(benzyloxy)benzoyl)pyrimidin-2-yl)amino)-2-((2-(dimethylamino)ethyl)(methyl)amino)-4-methoxyphenyl)acrylamide], in data set [1], the “Stability in SGF, %” value was 100.0%. In addition, the “Stability in SIF, %” value in data set [2] is given as 100.0%. Moreover, the 50% inhibitory concentration (IC50) on WT EGFR (Wild-Type EGFR) worked out at 0.154 µM; in data set [3] it was 2.21 µM. In addition, in data set [4], the CC50 at 72 h was 5.79 µM. In the data set on HepG2 cells, the “TI, CC50/IC50” value is given as 108.

Consider `C=CC(=O)Nc1cc(Nc2nccc(C(=O)c3ccc(Oc4ccccc4)cc3)n2)c(OC)cc1N(C)CCN(C)C` [EGFR_3365_17, N-(2-((2-(dimethylamino)ethyl)(methyl)amino)-4-methoxy-5-((4-(4-phenoxybenzoyl)pyrimidin-2-yl)amino)phenyl)acrylamide], for which the “Stability in SGF, %” value in data set [1] is listed as 100.0%. Further, the “Stability in SIF, %” value in data set [2] is recorded as 98.8%. Besides, the IC50 came out at 0.171 µM at WT EGFR (Wild-Type EGFR) and 2.39 µM in data set [3]. This molecule registered a CC50 at 72 h in data set [4] of 6.32 µM. The “TI, CC50/IC50” value in the data set with HepG2 cells came out at 16.

Take `C=CC(=O)Nc1cc(Nc2nccc(C(=O)c3ccc(OC)cc3)n2)c(OC)cc1N(C)CCN(C)C` [EGFR_3365_28, N-(2-((2-(dimethylamino)ethyl)(methyl)amino)-4-methoxy-5-((4-(4-methoxybenzoyl)pyrimidin-2-yl)amino)phenyl)acrylamide]: the “Stability in SGF, %” value in data set [1] is on record as 100.0%. Besides, the “Stability in SIF, %” value in data set [2] is 100.0%. Further, the IC50 at WT EGFR (Wild-Type EGFR) worked out at 0.128 µM; in data set [3], 3.64 µM. In data set [4], the CC50 at 72 h was 31.4 µM. Further, in the data set with HepG2 cells, the “TI, CC50/IC50” value was 1836.

On to `C=CC(=O)Nc1cc(Nc2nccc(C(=O)c3ccc(N4CCCCC4)cc3)n2)c(OC)cc1N(C)CCN(C)C` [EGFR_3365_90, N-(2-((2-(dimethylamino)ethyl)(methyl)amino)-4-methoxy-5-((4-(4-(piperidin-1-yl)benzoyl)pyrimidin-2-yl)amino)phenyl)acrylamide], for which the IC50 stood at 0.0323 µM on WT EGFR (Wild-Type EGFR) and 5.3 µM in data set [3]. In data set [4], this molecule had a cytotoxic concentration (CC50) at 72 h of 12.8 µM. Also, the “TI, CC50/IC50” value with HepG2 cells is on record as 1689.

For `C=CC(=O)Nc1cc(Nc2nccc(C(=O)c3cc4ccccc4n3C)n2)c(OC)cc1N(C)CCN(C)C` [EGFR_3365_94, N-(2-((2-(dimethylamino)ethyl) (methyl)amino)-4-methoxy-5-((4-(1-methyl-1H-indole-2-carbonyl)pyrimidin-2-yl)amino)phenyl)acrylamide], the IC50 was found to be 0.0254 µM against WT EGFR (Wild-Type EGFR) and 6.9 µM in data set [3]. In addition, in data set [4], half-maximal cytotoxicity (CC50 at 72 h) was put at 12 µM. In the data set with HepG2 cells, the “TI, CC50/IC50” value is reported as 1801.

As for `C=CC(=O)Nc1cc(Nc2nccc(C(=O)c3ccc(OC)cc3OCCC)n2)c(OC)cc1N(C)CCN(C)C` [EGFR_3365_102, N-(2-((2-(dimethylamino)ethyl)(methyl)amino)-4-methoxy-5-((4-(4-methoxy-2-propoxybenzoyl)pyrimidin-2-yl)amino)phenyl)acrylamide], the IC50 at WT EGFR (Wild-Type EGFR) is 0.206 µM; in data set [3], 5.57 µM. The molecule further displayed a CC50 at 72 h in data set [4] of 27.5 µM. Also, in the data set on HepG2 cells, the “TI, CC50/IC50” value was 342.

For the molecule `C=CC(=O)Nc1cc(Nc2nccc(C(=O)c3ccc(N4CCC(N)CC4)cc3)n2)c(OC)cc1N(C)CCN(C)C` [EGFR_3365_121, N-(5-((4-(4-(4-aminopiperidin-1-yl)benzoyl)pyrimidin-2-yl)amino)-2-((2-(dimethylamino)ethyl)(methyl)amino)-4-methoxyphenyl)acrylamide], the IC50 at WT EGFR (Wild-Type EGFR) turned out to be 0.0216 µM; in data set [3] it was 8.35 µM. This molecule showed a CC50 at 72 h in data set [4] of 75.1 µM. Further, the “TI, CC50/IC50” value with HepG2 cells is 17832.
